This note sets out measurements from patent US20250340574A1, “MODULATORS OF CYSTIC FIBROSIS TRANSMEMBRANE CONDUCTANCE REGULATOR” (Vertex Pharmaceuticals Incorporated, priority 2022, published 2025).

T1 sequence (P13569 with tags, fused parts or gaps DEL508-508): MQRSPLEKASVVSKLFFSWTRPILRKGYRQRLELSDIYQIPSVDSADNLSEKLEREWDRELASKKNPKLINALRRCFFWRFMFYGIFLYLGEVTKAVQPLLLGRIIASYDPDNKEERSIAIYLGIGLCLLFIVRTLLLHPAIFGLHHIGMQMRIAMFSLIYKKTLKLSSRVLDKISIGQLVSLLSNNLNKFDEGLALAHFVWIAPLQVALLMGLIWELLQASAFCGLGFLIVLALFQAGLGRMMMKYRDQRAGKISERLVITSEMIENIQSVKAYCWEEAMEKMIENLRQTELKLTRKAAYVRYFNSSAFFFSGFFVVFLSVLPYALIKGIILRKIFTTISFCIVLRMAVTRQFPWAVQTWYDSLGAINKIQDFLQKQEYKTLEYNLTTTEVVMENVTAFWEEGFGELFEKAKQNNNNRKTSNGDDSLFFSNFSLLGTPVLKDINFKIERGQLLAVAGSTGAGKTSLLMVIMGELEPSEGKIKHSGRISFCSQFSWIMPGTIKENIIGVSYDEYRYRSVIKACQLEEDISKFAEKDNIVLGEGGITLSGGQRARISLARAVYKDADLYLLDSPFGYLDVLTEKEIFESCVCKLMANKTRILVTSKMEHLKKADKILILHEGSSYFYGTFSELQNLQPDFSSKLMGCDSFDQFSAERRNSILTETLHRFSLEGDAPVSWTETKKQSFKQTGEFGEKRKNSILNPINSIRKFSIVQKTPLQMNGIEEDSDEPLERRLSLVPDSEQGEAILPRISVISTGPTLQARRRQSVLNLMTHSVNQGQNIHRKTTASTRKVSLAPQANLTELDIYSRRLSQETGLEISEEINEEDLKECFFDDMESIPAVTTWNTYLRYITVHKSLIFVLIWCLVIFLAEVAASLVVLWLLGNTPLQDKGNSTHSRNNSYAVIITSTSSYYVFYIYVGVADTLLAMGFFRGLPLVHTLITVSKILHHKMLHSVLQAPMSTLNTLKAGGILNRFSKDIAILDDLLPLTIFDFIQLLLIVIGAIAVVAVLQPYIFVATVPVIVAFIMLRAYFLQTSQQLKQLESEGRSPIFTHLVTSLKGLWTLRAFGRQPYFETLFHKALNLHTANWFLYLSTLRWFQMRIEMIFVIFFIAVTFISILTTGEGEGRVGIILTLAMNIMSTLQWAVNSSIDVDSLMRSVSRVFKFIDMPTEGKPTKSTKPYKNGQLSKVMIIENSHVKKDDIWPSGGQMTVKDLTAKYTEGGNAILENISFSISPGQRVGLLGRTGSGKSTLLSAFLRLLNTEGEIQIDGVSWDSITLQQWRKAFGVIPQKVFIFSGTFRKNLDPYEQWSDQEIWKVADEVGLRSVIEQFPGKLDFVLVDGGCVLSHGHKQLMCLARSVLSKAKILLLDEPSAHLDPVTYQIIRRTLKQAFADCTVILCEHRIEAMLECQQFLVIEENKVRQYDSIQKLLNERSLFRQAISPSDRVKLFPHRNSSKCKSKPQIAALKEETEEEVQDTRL

The first experiment has as its target T1, CFTR (F508del/MF-HBE cells) (Homo sapiens, UniProt P13569, DEL508-508).
T1 construct: human bronchial epithelial (HBE) cells derived from CF subjects heterozygous for F508del and a minimal function CFTR mutation (F508del/MF-HBE); endogenous in cells; host or cells: Primary human bronchial epithelial cells from CF subjects (F508del/MF genotype), differentiated at an air-liquid interface
In words: Ussing chamber assay of CFTR-mediated short-circuit currents, Assay D (single concentration of 1 μM). Particulars: with 44 nM potentiator and 18 μM Tezacaftor, 18-24 hours, 20% human serum. It counts as cell-based. The method, then:
Ussing chamber experiments were performed using human bronchial epithelial (HBE) cells derived from CF subjects heterozygous for F508del and a minimal function CFTR mutation (F508del/MF-HBE) and cultured as previously described (Neuberger T, Burton B, Clark H, Van Goor F Methods Mol Biol 2011:741:39-54). After four days the apical media was removed, and the cells were grown at an air liquid interface for >14 days prior to use.
To isolate the CFTR-mediated short-circuit (ISC) current, F508del/MF-HBE grown on Costar® Snapwell™ cell culture inserts were mounted in an Ussing chamber and the transepithelial ISC was measured under voltage-clamp recording conditions (Vhold=0 mV) at 37° C. The basolateral solution contained (in mM) 145 NaCl, 0.83 K2HPO4, 3.3 KH2PO4, 1.2 MgCl2, 1.2 CaCl2, 10 Glucose, 10 HEPES (pH adjusted to 7.4 with NaOH) and the apical solution contained (in mM) 145 NaGluconate, 1.2 MgCl2, 1.2 CaCl2, 10 glucose, 10 HEPES (pH adjusted to 7.4 with NaOH) and 30 μM amiloride to block the epithelial sodium channel. Forskolin (20 μM) was added to the apical surface to activate CFTR, followed by apical addition of a CFTR inhibitor cocktail consisting of BPO, GlyH-101, and CFTR inhibitor 172 (each at 20 μM final assay concentration) to specifically isolate CFTR currents. The CFTR-mediated ISC (μA/cm^2) for each condition was determined from the peak forskolin response to the steady-state current following inhibition.
The activity of the CFTR corrector compounds on the CFTR-mediated ISC was determined in Ussing chamber studies as described above. The F508del/MF-HBE cell cultures were either incubated with the corrector compounds at a range of concentrations in combination with 33 nM (6R,12R)-17-amino-12-methyl-6,15-bis(trifluoromethyl)-13,19-dioxa-3,4,18-triazatricyclo[12.3.1.12,5]nonadeca-1(18),2,4,14,16-pentaen-6-ol and 18 μM Tezacaftor or were incubated with the corrector compounds at a single fixed concentration of 1 μM in combination with 44 nM (6R,12R)-17-amino-12-methyl-6,15-bis(trifluoromethyl)-13,19-dioxa-3,4,18-triazatricyclo[12.3.1.12,5]nonadeca-1(18),2,4,14,16-pentaen-6-ol and 18 μM Tezacaftor for 18-24 hours at 37° C. and in the presence of 20% human serum. The concentration of corrector compounds with 44 nM or 33 nM (6R,12R)-17-amino-12-methyl-6,15-bis(trifluoromethyl)-13,19-dioxa-3,4,18-triazatricyclo[12.3.1.12,5]nonadeca-1(18),2,4,14,16-pentaen-6-ol and 18 μM Tezacaftor during the 18-24 hours incubations was kept constant throughout the Ussing chamber measurement of the CFTR-mediated ISC to ensure compounds were present throughout the entire experiment. The efficacy and potency of the putative F508del correctors was compared to that of the known Vertex corrector, (14S)-8-[3-(2-{Dispiro[2.0.2.1]heptan-7-yl}ethoxy)-1H-pyrazol-1-yl]-12,12-dimethyl-2λ^6-thia-3,9,11,18,23-pentaazatetracyclo[17.3.1.111,14.05,10]tetracosa-1(22),5,7,9,19(23),20-hexaene-2,2,4-trione, in combination with 18 μM Tezacaftor and 1 μM Ivacaftor.
• Assay A: 0.1 μM to 25 μM, 6 concentrations • Assay B: 0.00001 μM to 25 μM, 12 concentrations • Assay C: 0.026 μM to 25 μM, 6 concentrations • Assay D: Activity at single concentration of 1 μM
Take `Cc1cccc(C)c1-c1cc2nc(n1)NS(=N)(=O)c1cccc(c1)C(=O)N(Cc1cnc3oc(C4CC4)cc3n1)[C@H](CC(C)(C)C)CO2` (stereo partly drawn) [Compound I-148, (11R)-12-[(6-cyclopropylfuro[2,3-b]pyrazin-2-yl)methyl]-6-(2,6-dimethylphenyl)-11-(2,2-dimethylpropyl)-2-imino-2-oxo-9-oxa-2λ^6-thia-3,5,12,19-tetrazatricyclo[12.3.1.14,8]nonadeca-1(18),4(19),5,7,14,16-hexaen-13-one]: the “D activity at 1 μM (%)” value is on record as “+++ (+++ is >60%)”. Consider `Cc1cccc(C)c1-c1nc2nc(c1C)OC[C@@H](CC13CC(C1)C3)N(Cc1cnc3oc(C(C)(C)C)cc3n1)C(=O)c1cccc(c1)S(=O)(=O)N2` [Compound I-223], for which the “D activity at 1 μM (%)” value is “+++ (+++ is >60%)”.

In the case of `Cc1cccc(C)c1-c1cc2nc(n1)NS(=O)(=O)c1cccc(c1)C(=O)N(Cc1nc3cc(C4(C)CC4)oc3cc1F)[C@H](CC13CC(C1)C3)CO2` [Compound I-233], the “D activity at 1 μM (%)” value was “+++ (+++ is >60%)”. Still for that read-out and setting: the result for `Cc1cccc(C)c1-c1nc2nc(c1C)OC[C@@H](COC(C)C)N(Cc1cnc3oc(C(C)(C)C)cc3n1)C(=O)c1cccc(c1)S(=O)(=O)N2` [Compound I-216] reads “+++ (+++ is >60%)”; that for `Cc1cccc(C)c1-c1cc2nc(n1)NS(=O)(=O)c1cccc(c1)C(=O)N(Cc1nc3cc(C(C)(C)C)oc3cc1F)[C@H](CC1(C)CC1)CO2` [Compound I-243], “+++ (+++ is >60%)”; that for `Cc1cccc(C)c1-c1cc2nc(n1)NS(=O)(=O)c1cccc(c1)C(=O)N(Cc1nc3c(cc1F)nc(C(C)C)n3C)[C@H](CC1(C)CC1)CO2` [Compound I-79], “+++ (+++ is >60%)”. On to `Cc1cccc(C)c1-c1cc2nc(n1)NS(=O)(=O)c1cccc(c1)C(=O)N(Cc1cnc3c(n1)C(=O)N(C(C)C)[C@@H]3C)[C@H](CC(C)(C)C)CO2` (stereo in doubt) [III-23], for which the “D activity at 1 μM (%)” value is recorded as “+++ (+++ is >60%)”. With `Cc1cccc(C)c1-c1cc2nc(n1)NS(=O)(=O)c1cccc(c1)C(=O)N(Cc1cn3cccc(O)c3n1)[C@H](CC(C)(C)C)CO2` [III-15], the “D activity at 1 μM (%)” value was “+++ (+++ is >60%)”. On to `Cc1cccc(C)c1-c1cc2nc(n1)NS(=O)(=O)c1cccc(c1)C(=O)N(Cc1cnc3oc(C(C)C)c(C)c3n1)[C@H](CC(C)(C)F)CO2` [Compound I-48], for which the “D activity at 1 μM (%)” value is “+++ (+++ is >60%)”. On the same count and under the same terms, the entry for `Cc1cccc(C)c1-c1cc2nc(n1)NS(=O)(=O)c1cccc(c1)C(=O)N(Cc1cnc3oc(C4CC4)cc3n1)[C@@H](CC1CC(C)(C)C1)CO2` (single isomer, unassigned) [Compound I-165, 12-[(6-Cyclopropylfuro[2,3-b]pyrazin-2-yl)methyl]-11-[(3,3-dimethylcyclobutyl)methyl]-6-(2,6-dimethylphenyl)-2,2-dioxo-9-oxa-2λ^6-thia-3,5,12,19-tetrazatricyclo[12.3.1.14,8]nonadeca-1(18),4(19),5,7,14,16-hexaen-13-one] is “+++ (+++ is >60%)”.

Consider `Cc1cccc(C)c1-c1cc2nc(n1)NS(=O)(=O)c1cccc(c1)C(=O)N(Cc1cnc3oc(C4CC4)cc3n1)[C@H](COC1CC1)CO2` [Compound I-115], for which the “D activity at 1 μM (%)” value is “+++ (+++ is >60%)”.

The experiment is the same for the next values; noted with them: with 44 nM potentiator and 18 μM Tezacaftor, 20% human serum.
In the case of `Cc1cccc(C)c1-c1cc2nc(n1)NS(=O)(=O)c1cccc(c1)C(=O)N(Cc1ncc3cc(C4CC4)n(C)c3n1)[C@H](COC(C)C)CO2` [IV-29], the “D act. at 1 μM (%)” value was “+++ (+++ is >60%)”. On to `Cc1cccc(C)c1-c1cc2nc(n1)NS(=O)(=O)c1cccc(c1)C(=O)N(Cc1cnc3cc(C4(C)CC4)n(C)c3n1)[C@@H](C(C1CCC1)C1CCC1)CO2` (single isomer, unassigned) [IV-21, 11-[di(cyclobutyl)methyl]-6-(2,6-dimethylphenyl)-12-[[5-methyl-6-(1-methylcyclopropyl)pyrrolo[2,3-b]pyrazin-3-yl]methyl]-2,2-dioxo-9-oxa-2λ^6-thia-3,5,12,19-tetrazatricyclo[12.3.1.14,8]nonadeca-1(18),4(19),5,7,14,16-hexaen-13-one], for which the “D act. at 1 μM (%)” value is “++ (++ is 30-60%)”.
